Reference: article PMC6325233, “A Novel Actin Binding Drug with In Vivo Efficacy” (Antimicrobial Agents and Chemotherapy, 2018)

Assays:
[1] = test system: Candida albicans 23512; test: MIC susceptibility testing (fluconazole-resistant strain); type: cell-based; design: key to MIC, 50% inhibition: -: indicates absence of isolates with 50% inhibition endpoint; settings: CLSI M27-A3
Protocol: (§1) Occidiofungin was purified from a liquid culture of Burkholderia contaminans MS14 as previously described ([21]). MIC susceptibility testing was performed according to the CLSI M27-A3 and M38-A2 standards for the susceptibility testing of yeasts and filamentous fungi, respectively. S. cerevisiae deletion mutants were obtained from the commercially available BY4741 deletion library (Thermo Scientific).

[2] = test system: Candida glabrata 27243; test: as above; type: cell-based; design: key to MIC, 50% inhibition: -: indicates absence of isolates with 50% inhibition endpoint; settings: CLSI M27-A3
Protocol: as §1

[3] = biological target: T1, rabbit skeletal muscle F-actin (Oryctolagus cuniculus, UniProt P68135); test: Cosedimentation assay; type: binding; settings: F-actin 200 nM, Langmuir fit
T1 construct: Purified rabbit skeletal muscle filamentous actin (catalog number AKF99); purchased Cytoskeleton, Inc. AKF99; host or cells: rabbit skeletal muscle (tissue-purified)
Protocol: Purified rabbit skeletal muscle filamentous actin (catalog number AKF99) and G-actin (catalog number AKL95) were purchased from Cytoskeleton, Inc. Actin was reconstituted in Milli-Q water to achieve a stock concentration of 0.4 mg/ml in a buffer that consisted of 5 mM Tris-HCl (pH 8.0), 0.2 mM CaCl2, 0.2 mM ATP, 2 mM MgCl2, and 5% (wt/vol) sucrose as directed by the supplier. This solution was stored at −80°C in 50-μl aliquots until use. Immediately before use, each aliquot was thawed by placing it in a 37°C water bath for 5 min and then at room temperature. For all studies, 24 μg of F- or G-actin was used with 8 μg alkyne-OF. F-actin filaments were reacted with native occidiofungin for 15 min at room temperature at molar ratios of 1:10 (24 μg actin to 8 μg native occidiofungin) and 1:5 (24 μg actin to 4 μg native occidiofungin). As per the manufacturer’s instructions, Acti-stain 670 phalloidin (Cytoskeleton, Inc.) was used as a control in an in vitro actin filament binding study. Actin filaments treated with DMSO (solvent blank negative control) were stained and observed for comparison. […]
The reaction buffer for F-actin (200 nM) and occidiofungin in the cosedimentation study consisted of 5 mM Tris-HCl (pH 8.0), 0.2 mM ATP, and 2 mM MgCl2. […] A TSQ Quantum access triple quadrupole mass spectrometer was used to quantify the amount of occidiofungin within each sample. […]

[4] = Murine model of vulvovaginal candidiasis, tolerability; type: in vivo, BALB/c mice
Protocol: The murine model of vulvovaginal candidiasis has been reported ([59]). A variation of this method was used. Three groups of six mice were used to evaluate two concentrations of occidiofungin (100 μg and 50 μg) and vehicle control (0.3% Noble agar). Briefly, 6- to 8-week-old BALB/c mice were treated subcutaneously with 200 ng per mouse of β-estradiol 17-valerate 3 days prior to inoculation with C. albicans (day −3). A subcutaneous dose of estradiol was administered every 3 days (day 0 [D0] and D3) until the end of the experiment to induce pseudoestrus. Intravaginal inoculations of approximately 20 μl of 2.5 × 10^6 CFU/ml of C. albicans were performed on D0 of the VVC study. On the same day of inoculation (D0), another subcutaneous injection of estradiol was made. A lyophilized powder of occidiofungin containing either 100 μg or 50 μg of occidiofungin was suspended in 20 μl of warm 0.3% Noble agar before the intravaginal inoculations. Drug treatments were performed on D2, D3, and D4 of the study. On day 5 (D5), the vaginal lumen was lavaged with 100 μl of sterile PBS with a 200-µl pipette tip. Serial dilutions and total CFU per vaginal lavage were determined by plating on YPD plates containing 50 μg/ml of chloramphenicol. Body weights, signs of vaginal irritation such as swelling or bleeding, and clinical signs of discomfort (stereotypical stretching behavior) were monitored. Statistical analyses (t tests) were performed to compare the control group to the treated groups and to compare differences between treated groups. All the analyses were 2 sided, with a P value of <0.05 considered statistically significant.

[5] = test system: yeast; settings: cited from earlier work
Description: Occidiofungin is a nonribosomally synthesized glycolipopeptide produced by the soil bacterium Burkholderia contaminans MS14 ([21]). It is a cyclic peptide with a base mass of 1,200 Da (Fig. 1) ([21]). Occidiofungin has a wide spectrum of activities against filamentous and nonfilamentous fungi and minimal toxicity in an animal system ([21], [22]).

[6] = intravaginal 100 and 50 µg, once per day for 3 days

occidiofungin
MIC, 50% inhibition ([1]; 24 hours): - | MIC, 100% inhibition ([1]; 24 hours): 1 µg/mL | MIC, 50% inhibition ([1]; 48 hours): - | MIC, 100% inhibition ([1]; 48 hours): 2 µg/mL | MIC, 50% inhibition ([2]; 24 hours): 2 µg/mL | MIC, 100% inhibition ([2]; 24 hours): 4 µg/mL | MIC, 50% inhibition ([2]; 48 hours): - | MIC, 100% inhibition ([2]; 48 hours): 4 µg/mL | saturation of binding, stoichiometry ligand : actin monomer [3]: 24 | Kd ([3]; occidiofungin 25 to 25,600 nM, pH 8.0, room temperature, 30 min, LC-MS quantification, read-out: estimated macroscopic dissociation constant (Kd)): 1000 nM | behavioral changes (sluggishness, stretching, reluctance to consume food) [4, 6]: No behavioral changes | vaginal bleeding or swelling [4, 6]: no vaginal bleeding or swelling was observed | signs of toxicity ([4]; treatment of murine vulvovaginal candidiasis): without any signs of toxicity | impact on growth rate of yeast ([5]; subinhibitory concentrations): little to no impact on the growth rate of yeast | induction of apoptosis ([5]; yeast cells at the MIC): rapidly induces apoptosis in yeast cells
